# In article PMC9176662, “Design, synthesis, molecular modeling and biological evaluation of novel Benzoxazole-Benzamide conjugates via a 2-Thioacetamido linker as potential anti-proliferative agents, VEGFR-2 inhibitors and apoptotic inducers” (Journal of Enzyme Inhibition and Medicinal Chemistry, 2022):
# Key:
# Type in all cases: cell-based, human
# MCF-7 cells [1] = experiment: Anti-proliferative activity, SRB assay, MCF-7; conditions: for IC50: SRB assay, 72 h exposure, mean ± SD of three separate experiments; for MCF-7 SI (selectivity index): ratio of IC50 for normal cells (WI-38) to IC50 for MCF-7
# Description: Several of these derivatives were reported as acting as competitive inhibitors of different tyrosine kinases, with potent cytotoxic activity against various cell lines[58]^,[59]. […] Thus, in this study a novel series of benzoxazole-benzamide conjugates was initially evaluated for their potential anti-cancer activity against colon cancer cell line (HCT-116), breast cancer cell line (MCF-7) and normal human fibroblasts (WI-38), using the Sulforhodamine B colorimetric (SRB) assay.
# 2.1. Anti-proliferative activity against HCT-116 and MCF-7 human cancer cells lines.
# The sulforhodamine B (SRB) assays were performed according to Skehan et al..
# Briefly, exponentially growing cells were trypsinized, counted and seeded at the appropriate densities (5000 cells/100 μL/ well) into 96-well microtiter plates. Cells were incubated in a humidified atmosphere at 37 °C for 24 h. Then, the cells were exposed to the tested compounds at the desired concentrations (0.01, 0.1, 1, 10, and 100 μM) or to 1% dimethyl sulfoxide (DMSO) for 72 h. At the end of the treatment period, the media were removed, and the cells were fixed with 10% trichloroacetic acid at 4 °C for 1 h. Following, the cells were washed with tap water four times and incubated with SRB 0.4% for 30 min. Excess dye was removed by washing repeatedly with 1% (vol/vol) acetic acid. The protein-bound dye was dissolved in 10 mM Tris base solution for (optical density) OD determination at 510 nm using a Spectra Max plus Microplate Reader (Molecular Devices, CA). Cell viability was expressed relative to the untreated control cells. […]
# MCF-7 cells [2] = experiment: Cell cycle analysis by DNA flow cytometry, MCF-7; conditions: MCF7, 24 h, compound at its IC50 (supplement: 10 μM); for %Pre-G1: control 3.41; for %G2-M: control 16.53; for %S: control 28.33; for %G0-G1: control 55.14
# Protocol: It is clearly known that generally the cytotoxic agents exert their anti-proliferative effect via cell cycle arrest at a specific phase. In the present study, due to the excellent in-vitro anti-proliferative activity of conjugates 1 and 11 against both HCT-116 and MCF-7 cancer cell lines as well as their excellent VEGFR-2 inhibitory activities, cell cycle analysis have been carried out for both compounds. […]
# 2.3. Cell cycle analysis.
# HCT-116 and MCF-7 cells were seeded at concentrations of 1 x 10^5 cells per well in a 6-well plate, and then incubated for 24 h. The cells were treated for 24 h with vehicles (0.1 percent DMSO) or 10 μM of compounds 1 or 11. Using ice-cold, 70 percent ethanol at 4 °C, cells were harvested and fixed for 12 h. Ethanol was removed, and the cells were washed by cold PBS.
# Then, the cells were incubated in 0.5 mL of PBS containing 1 mg/mL Ranse for 30 min at 37 °C.
# In the dark, the cells were stained with propidium iodide for 30 min. Flow cytometer was then used to detect contents of DNA [63]. […]
# Bcl-xL = experiment: Western blot of Bcl-xL expression in HCT-116; conditions: HCT-116, Western blot, normalised to β-actin
# Description: (§1) It is well known that the anti-apoptotic proteins Bcl-2 and Bcl-xL are mainly overexpressed in various types of cancer, causing survival of cancer cells and/or drug resistance. Therefore, inhibition of these proteins expression leads to cancer cell death and has been used as a strategy for anticancer drug development. In this study, the impact of compounds 1 and 11 on Bcl-2 and Bcl-xL expression in HCT-116 and MCF-7 cancer cell lines was examined using Western blot analysis and all the data were normalised to β-actin (Figure 9).
# (§2) 2.5. Impact of compounds 1 and 11 on the level of anti-apoptotic markers (Bcl-2, and Bcl-xL).
# (§3) Gel electrophoresis and immuno-blot analysis of proteins (Western Blot) method was used to examine the effect of compounds 1 and 11 on the level of anti-apoptotic markers (Bcl-2, and Bcl-xL). […]
# (§4) The cells were then immediately frozen at −20 °C for 1 h for further lysis and collected by cell scraper and sonicated 2×10s. Total protein concentrations were determined colorimetrically using Bradford method before proceeding to the western blotting. […] Briefly, the membranes were incubated for 1 min with a mixture of equal volumes from ECL solution A and ECL solution B. The chemiluminescent signals were captured using a CCD camera-based imager (Chemi Doc imager, Biorad, USA), and the band intensities were then measured with β-actin as an internal reference protein. […]
# Bcl-2 = experiment: Western blot of Bcl-2 expression in MCF-7; conditions: MCF-7, Western blot, normalised to β-actin
# Description: as §1, §2, §3, §4
"IC50 (MCF-7 cells [1]; Homo sapiens, MCF7, 72 h) [µM]",IC50 (MCF-7 cells [1]) [µM],SMILES,MCF-7 SI (selectivity index) (MCF-7 cells [1]),%Pre-G1 (MCF-7 cells [2]) [%],%G2-M (MCF-7 cells [2]) [%],%S (MCF-7 cells [2]) [%],%G0-G1 (MCF-7 cells [2]) [%],Bcl-xL expression (Bcl-xL),Bcl-2 expression (Bcl-2)
16.6 ± 0.013,–,O=C(CSc1nc2cc(Cl)ccc2o1)Nc1ccc(C(=O)Nc2ccc(Cl)cc2)cc1 [Compound 11],6.2,16.93,25.24,30.92,43.84,inhibited,inhibited
7.8 ± 0.015,7.2 ± 0.01,O=C(CSc1nc2ccccc2o1)Nc1ccc(C(=O)NC2CCCCC2)cc1 [Compound 1],5.8,19.78,29.62,29.72,40.66,inhibited,inhibited
